Laboratory results from US8247211B2, “Glycopeptide antibiotics” (American Cyanamid Company, priority 2001, dated 2012).
≈ marks a conversion by molar mass, not a printed value.

Legend:
Test in all cases: In vitro antibacterial evaluation: minimum inhibitory concentration (MIC), broth dilution method
Type in all cases: cell-based
Staphylococcus sp. = conditions: broth dilution, 18 hours at 35° C.
Procedure: (§1) The minimum inhibitory concentration (MIC), the lowest concentration of the antibiotic which inhibits growth of the test organism, is determined by the broth dilution method using Muller-Hinton II […] (Baltimore Biological Laboratories) following the recommendations of the National Committee for Clinical Laboratory Standards [Methods for dilution antimicrobial susceptibility tests for bacteria that grow aerobically, approved standard M7-A2, National Committee for Clinical Laboratory Standards, Villanova, Pa].
(§2) An inoculum level of 5×10^5 CFU/mL, and a range of antibiotic concentrations (64-0.06 μg/mL) is used. […] The test organisms include a spectrum of Gram-positive bacteria comprised of Staphylococcus sp., Streptococcus sp. and Enterococcus sp. These organisms include recent clinical isolates that are resistant to methicillin, penicillin and/or vancomycin.

Streptococcus sp. = system: Streptococcus sp.
Procedure: as §1, §2

Enterococcus sp. = system: Enterococcus sp.
Procedure: as §1, §2

Escherichia coli = system: Escherichia coli
Procedure: as §1, §2

MIC Coagulase Negative Staphylococcus (GC 4547) (Staphylococcus sp.; 5×10^5 CFU/mL): 1 µg/mL (≈ 0.698 µM)
MIC Coagulase Negative Staphylococcus (GC 4548) (Staphylococcus sp.; 5×10^5 CFU/mL): <0.5 µg/mL
MIC Coagulase Negative Staphylococcus (GC 4549) (Staphylococcus sp.; 5×10^5 CFU/mL): 1 µg/mL (≈ 0.698 µM)
MIC Coagulase Negative Staphylococcus (GC 4551) (Staphylococcus sp.; 5×10^5 CFU/mL): <0.5 µg/mL
MIC Coagulase Negative Staphylococcus (GC 6257) (Staphylococcus sp.; 5×10^5 CFU/mL): 0.5 µg/mL (≈ 0.349 µM)
MIC Staphylococcus aureus (ATCC 29213) (Staphylococcus sp.; 5×10^5 CFU/mL): 1 µg/mL (≈ 0.698 µM)
MIC Staphylococcus aureus (GC 1131) (Staphylococcus sp.; 5×10^5 CFU/mL): <0.5 µg/mL
MIC Staphylococcus aureus (GC 3051) (Staphylococcus sp.; 5×10^5 CFU/mL): 1 µg/mL (≈ 0.698 µM)
MIC Staphylococcus aureus (GC 3053) (Staphylococcus sp.; 5×10^5 CFU/mL): 1 µg/mL (≈ 0.698 µM)
MIC Staphylococcus aureus (GC 4541) (Staphylococcus sp.; 5×10^5 CFU/mL): <0.5 µg/mL
MIC Staphylococcus aureus (GC 4542) (Staphylococcus sp.; 5×10^5 CFU/mL): <0.5 µg/mL
MIC Staphylococcus aureus (GC 4544) (Staphylococcus sp.; 5×10^5 CFU/mL): 1 µg/mL (≈ 0.698 µM)
MIC Staphylococcus aureus (GC 4545) (Staphylococcus sp.; 5×10^5 CFU/mL): 1 µg/mL (≈ 0.698 µM)
MIC Staphylococcus aureus-SMITH (GC 4543) (Staphylococcus sp.; 5×10^5 CFU/mL): <0.5 µg/mL
MIC Staphylococcus aureus (ATCC 29213) (Staphylococcus sp.; strain ATCC 29213): 1 µg/mL (≈ 0.698 µM)
MIC Staphylococcus aureus (GC 1131) (Staphylococcus sp.; strain GC 1131): <0.5 µg/mL
MIC Staphylococcus aureus (GC 3051) (Staphylococcus sp.; strain GC 3051): 1 µg/mL (≈ 0.698 µM)
MIC Staphylococcus aureus (GC 3053) (Staphylococcus sp.; strain GC 3053): 1 µg/mL (≈ 0.698 µM)
MIC Staphylococcus aureus (GC 4541) (Staphylococcus sp.; strain GC 4541): <0.5 µg/mL
MIC Staphylococcus aureus (GC 4542) (Staphylococcus sp.; strain GC 4542): <0.5 µg/mL
MIC Staphylococcus aureus-SMITH (GC 4543) (Staphylococcus sp.; strain GC 4543): <0.5 µg/mL
MIC Staphylococcus aureus (GC 4544) (Staphylococcus sp.; strain GC 4544): 1 µg/mL (≈ 0.698 µM)
MIC Staphylococcus aureus (GC 4545) (Staphylococcus sp.; strain GC 4545): 1 µg/mL (≈ 0.698 µM)
MIC Coagulase Negative Staphylococcus (GC 4547) (Staphylococcus sp.; strain GC 4547): 1 µg/mL (≈ 0.698 µM)
MIC Coagulase Negative Staphylococcus (GC 4548) (Staphylococcus sp.; strain GC 4548): <0.5 µg/mL
MIC Coagulase Negative Staphylococcus (GC 4549) (Staphylococcus sp.; strain GC 4549): 1 µg/mL (≈ 0.698 µM)
MIC Coagulase Negative Staphylococcus (GC 4551) (Staphylococcus sp.; strain GC 4551): <0.5 µg/mL
MIC Coagulase Negative Staphylococcus (GC 6257) (Staphylococcus sp.; strain GC 6257): 0.5 µg/mL (≈ 0.349 µM)
MIC Streptococcus pneumoniae (ATCC 6301) (Streptococcus sp.; strain ATCC 6301): <0.5 µg/mL
MIC Streptococcus pneumoniae (GC 1894) (Streptococcus sp.; strain GC 1894): <0.5 µg/mL
MIC Streptococcus pyogenes (GC 4563) (Streptococcus sp.; strain GC 4563): 1 µg/mL (≈ 0.698 µM)
MIC Streptococcus agalactiae (GC 4564) (Streptococcus sp.; strain GC 4564): <0.5 µg/mL
MIC Streptococcus pneumoniae (GC 4565) (Streptococcus sp.; strain GC 4565): <0.5 µg/mL
MIC Enterococcus faecalis (ATCC 29212) (Enterococcus sp.; strain ATCC 29212): 1 µg/mL (≈ 0.698 µM)
MIC Enterococcus faecalis (GC 2242) (Enterococcus sp.; strain GC 2242): <0.5 µg/mL
MIC Enterococcus faecium (GC 2243) (Enterococcus sp.; strain GC 2243): 1 µg/mL (≈ 0.698 µM)
MIC Enterococcus faecalis (GC 2691) (Enterococcus sp.; strain GC 2691): 1 µg/mL (≈ 0.698 µM)
MIC Enterococcus faecalis (GC 3059) (Enterococcus sp.; strain GC 3059): 1 µg/mL (≈ 0.698 µM)
MIC Enterococcus faecalis (GC 4552) (Enterococcus sp.; strain GC 4552): 1 µg/mL (≈ 0.698 µM)
MIC Enterococcus faecalis (GC 4553) (Enterococcus sp.; strain GC 4553): 2 µg/mL (≈ 1.4 µM)
MIC Enterococcus faecalis (GC 4554) (Enterococcus sp.; strain GC 4554): 1 µg/mL (≈ 0.698 µM)
MIC Enterococcus faecium (GC 4556) (Enterococcus sp.; strain GC 4556): 1 µg/mL (≈ 0.698 µM)
MIC Enterococcus faecium (GC 4557) (Enterococcus sp.; strain GC 4557): 1 µg/mL (≈ 0.698 µM)
MIC Enterococcus avium (GC 4558) (Enterococcus sp.; strain GC 4558): 1 µg/mL (≈ 0.698 µM)
MIC Enterococcus faecalis (GC 6189) (Enterococcus sp.; strain GC 6189): 1 µg/mL (≈ 0.698 µM)
MIC Escherichia coli (ATCC 25922) (Escherichia coli; strain ATCC 25922): 64 µg/mL (≈ 44.6 µM)
MIC Escherichia coli (GC 4559) (Escherichia coli; strain GC 4559): 32 µg/mL (≈ 22.3 µM)
MIC Escherichi coli (GC 4560) (Escherichia coli; strain GC 4560): <0.5 µg/mL
SMILES: CC(c1ccccc1)C1NC(=O)CNC(=O)C(CO)NC(=O)C(C(O)C2CNC(=N)N2C2OC(CO)C(O)C(O)C2O)NC(=O)C(C(O)C2CNC(=N)N2)NC(=O)C(Cc2ccc(OC3OC(CO)C(OC4OC5COC(c6ccc7ccccc7c6)OC5C(O)C4O)C(O)C3O)cc2)NC1=O (stereo not drawn) [Example 145, Cyclo[glycyl-β-methylphenylalanyl-O-[4-O-[4,6-O-(2-naphthylmethylene)hexopyranosyl]-hexopyranosyl]tyrosyl-3-(2-iminoimidazolidin-4-yl)seryl-3(3-hexopyranosyl-2-iminoimidazolidin-4-yl)serylseryl]]
MIC Staphylococcus haemolyticus (GC 4546) (Staphylococcus sp.; 5×10^5 CFU/mL): <0.5 µg/mL
MIC Staphylococcus haemolyticus (GC 4546) (Staphylococcus sp.; strain GC 4546): <0.5 µg/mL
